Reference: PubChem BioAssay AID2060885 (Molecular Pharmacology Branch, DTP, NCI, 2025)

Tested on: NCI-H23 complex spheroids with HUVEC/MSC, viability
Assay: Anticancer human tumor NCI-H23 cell line growth inhibition [RAS];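 for viability, T/C: 100% = DMSO vehicle control viability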
Conditions: for IC50: curve of first compound; for viability, T/C: stronger effect = lower value
Text: RAS pathway inhibitors in Combinations in Complex Spheroids
A high-throughput screen of multi-cell type tumor spheroids was designed to identify active combinations of RAS pathway inhibitors and targeted small molecules. Complex spheroids include a stromal component modeled by human endothelial cells (HUVEC) and fibroblasts modeled by human mesenchymal stem cells (MSCs). The concentration ranges selected for each drug and investigational agent were based upon clinically achievable concentrations if the clinical Cmax of the agent was known.
Compounds. The drugs and investigational agents: abemaciclib (NSC768073), cobimetinib (NSC768068), divarasib (GDC6063, NSC841802), docetaxel (NSC628503), GDC-1971 (RLY-1971, NSC841576), gemcitabine (NSC613327), inavolisib (NSC800729), ipatasertib (NSC767898), KB-0742 (NSC834161), MRTX-1133 (NSC836407), osimertinib (NSC779217), RMC-4630 (NSC839698), RMC-6236 (NSC851965), RMC-6291 (NSC852671), Ro-3306 (NSC812927), sapanisertib (NSC764658), SN-38 (NSC673596), staurosporine (NSC755774), SY5609 (NSC837396), and tovorafenib (DAY101, NSC766906), were obtained from the National Cancer Institute (NCI) Developmental Therapeutics Program Chemical Repository. The FDA-approved anticancer drug set is available from the NCI Developmental Therapeutics Program. […] The stock solutions were prepared in dimethyl sulfoxide (DMSO, Sigma-Aldrich, St. Louis, MO, cat. D2650) at 800-fold the tested concentration and stored at -70 degrees C prior to their use. All drugs and investigational agents were tested over a range starting from a high concentration at or near the clinical Cmax and decreasing in half-log increments. If the clinical Cmax for an agent had not been determined, the highest concentration tested was 10 microM.
Cell Culture. All cells were maintained in an incubator at 37 degrees C and 5% CO2 with 95% humidity. The PDC lines were cultured according to standard operating procedures established by the NCI PDMR. All PDCs were thawed and cultured in Matrigel-coated flasks prepared with a working solution of 1X Ham's F-12 nutrient mix, without supplementation (Invitrogen, Waltham, MA, cat. 11765054), 100 U/mL penicillin-streptomycin (Invitrogen, cat. 15140122), and 2.5% Matrigel (Corning Inc., Corning, NY, cat. 354248) for the first three passages. The 362531-283-R-J2-PDC and 782815-120-R-J1-PDC lines were cultured in 6C/Colon 1B media, which includes advanced DMEM/F-12 (Thermo Fisher Scientific, cat. 12634028), 10 mM HEPES (Thermo Fisher Scientific, cat. 15630080), 1X GlutaMAX supplement (Thermo Fisher Scientific, cat. 35050061), 0.1 mg/mL primocin (InvivoGen, San Diego, CA, cat. ant-pm-2), 10% defined fetal bovine serum, heat inactivated (HyClone Laboratories Inc., Logan, UT, cat. SH30070.03HI), 50% L-WRN conditioned media (ATCC, cat. CRL-3276), 1.25 mM N-Acetyl-L-cysteine (Sigma-Aldrich, cat. A9165), 10 mM nicotinamide (Sigma-Aldrich, cat. N0636), 1X B-27 supplement (Thermo Fisher Scientific, cat. 17504044), 1X N-2 supplement (Thermo Fisher Scientific, cat. 17502048), 50 ng/mL human EGF (Thermo Fisher Scientific, cat. PHG0311), and 10 microM Y-27632 dihydrochloride (Tocris Bioscience, cat. 1254). The K12877-001-R-J1-PDC line was cultured in 6I media, which includes all 6C/Colon 1B media plus 10 ng/mL human FGF-10 (PeproTech, cat. 100-26), 1 ng/mL human FGF-2 (PeproTech, cat. 100-18B), 1 µM prostaglandin E2 (Tocris Bioscience, cat. 2296), […] hydrocortisone (Sigma-Aldrich, cat. H4001), and […] bovine insulin (Sigma-Aldrich, cat. I6634). The K86415-001-R-J1-PDC line was cultured in 6D media, which includes all 6C/Colon 1B media components minus the L-WRN conditioned media. The 485176-168-R4-J1-PDC was cultured in PANC media, which includes all 6C/Colon 1B media plus 100 ng/mL human FGF-10 (PeproTech, cat. 100-26), 500 nM SB-431542 (Selleckchem, cat. S1067), and 10 nM gastrin (Tocris Bioscience, cat. 3006). […]

[1] = second compound 0.000949 µM, first compound 0.0316 µM
[2] = second compound 0.000949 µM, first compound 0.1 µM
[3] = second compound 0.000949 µM, first compound 0.316 µM
[4] = second compound 0.000949 µM, first compound 1 µM
[5] = second compound 0.000949 µM, first compound 3.16 µM
[6] = second compound 0.000949 µM, first compound 10 µM
[7] = second compound 0.003 µM, first compound 0.0316 µM
[8] = second compound 0.003 µM, first compound 0.1 µM
[9] = second compound 0.003 µM, first compound 0.316 µM
[10] = second compound 0.003 µM, first compound 1 µM
[11] = second compound 0.003 µM, first compound 3.16 µM
[12] = second compound 0.003 µM, first compound 10 µM
[13] = second compound 0.00949 µM, first compound 0.0316 µM
[14] = second compound 0.00949 µM, first compound 0.1 µM
[15] = second compound 0.00949 µM, first compound 0.316 µM
[16] = second compound 0.00949 µM, first compound 1 µM
[17] = second compound 0.00949 µM, first compound 3.16 µM
[18] = second compound 0.00949 µM, first compound 10 µM
[19] = second compound 0.03 µM, first compound 0.0316 µM
[20] = second compound 0.03 µM, first compound 0.1 µM
[21] = second compound 0.03 µM, first compound 0.316 µM
[22] = second compound 0.03 µM, first compound 1 µM
[23] = second compound 0.03 µM, first compound 3.16 µM
[24] = second compound 0.03 µM, first compound 10 µM
[25] = second compound 0.0949 µM, first compound 0.0316 µM
[26] = second compound 0.0949 µM, first compound 0.1 µM
[27] = second compound 0.0949 µM, first compound 0.316 µM
[28] = second compound 0.0949 µM, first compound 1 µM
[29] = second compound 0.0949 µM, first compound 3.16 µM
[30] = second compound 0.0949 µM, first compound 10 µM
[31] = second compound 0.3 µM, first compound 0.0316 µM
[32] = second compound 0.3 µM, first compound 0.1 µM
[33] = second compound 0.3 µM, first compound 0.316 µM
[34] = second compound 0.3 µM, first compound 1 µM
[35] = second compound 0.3 µM, first compound 3.16 µM
[36] = second compound 0.3 µM, first compound 10 µM

NC1c2ccccc2OC12CCN(c1cnc3c(N4CCCc5ncccc54)n[nH]c3n1)CC2 (centres undefined) + CCn1c(-c2cc(N3CCN(C)CC3)cnc2C(C)OC)c2c3cc(ccc31)-c1csc(n1)CC(NC(=O)C1CC1C)C(=O)N1CCCC(N1)C(=O)OCC(C)(C)C2
IC50 (second compound 0.000949 µM): < 31.6 nM
IC50 (second compound 0.003 µM): < 31.6 nM
IC50 (second compound 0.00949 µM): < 31.6 nM
IC50 (second compound 0.03 µM): < 31.6 nM
IC50 (second compound 0.0949 µM): < 31.6 nM
IC50 (second compound 0.3 µM): < 31.6 nM
viability, T/C [1]: 29%
viability, T/C [2]: 22.1%
viability, T/C [3]: 15.2%
viability, T/C [4]: 15.1%
viability, T/C [5]: 10.4%
viability, T/C [6]: 7.21%
viability, T/C [7]: 23.4%
viability, T/C [8]: 15.7%
viability, T/C [9]: 12.3%
viability, T/C [10]: 8.99%
viability, T/C [11]: 8.38%
viability, T/C [12]: 5.79%
viability, T/C [13]: 19.4%
viability, T/C [14]: 13.9%
viability, T/C [15]: 9.85%
viability, T/C [16]: 7.3%
viability, T/C [17]: 5.1%
viability, T/C [18]: 5.27%
viability, T/C [19]: 15.7%
viability, T/C [20]: 12.8%
viability, T/C [21]: 8.98%
viability, T/C [22]: 5.94%
viability, T/C [23]: 4.97%
viability, T/C [24]: 5.95%
viability, T/C [25]: 12.9%
viability, T/C [26]: 9.83%
viability, T/C [27]: 6.34%
viability, T/C [28]: 5.78%
viability, T/C [29]: 4.29%
viability, T/C [30]: 6.19%
viability, T/C [31]: 11%
viability, T/C [32]: 7.93%
viability, T/C [33]: 6.42%
viability, T/C [34]: 4.7%
viability, T/C [35]: 4.58%
viability, T/C [36]: 5.26%

CC(=O)OC12COC1CC(O)C1(C)C(=O)C(O)C3=C(C)C(OC(=O)C(O)C(NC(=O)OC(C)(C)C)c4ccccc4)CC(O)(C(OC(=O)c4ccccc4)C21)C3(C)C (centres undefined) + CCn1c(-c2cccnc2C(C)OC)c2c3cc(ccc31)N1CCOC(CC(NC(=O)C(C(C)C)N(C)C(=O)C3(F)CCN(C(=O)C#CC(C)(C)N(C)C)CC3)C(=O)N3CCCC(N3)C(=O)OCC(C)(C)C2)C1
IC50 (second compound 0.000949 µM): < 31.6 nM
IC50 (second compound 0.003 µM): < 31.6 nM
IC50 (second compound 0.00949 µM): < 31.6 nM
IC50 (second compound 0.03 µM): < 31.6 nM
IC50 (second compound 0.0949 µM): < 31.6 nM
IC50 (second compound 0.3 µM): < 31.6 nM
viability, T/C [1]: 10.4%
viability, T/C [2]: 12.4%
viability, T/C [3]: 9.29%
viability, T/C [4]: 12.5%
viability, T/C [5]: 17.6%
viability, T/C [6]: 17.5%
viability, T/C [7]: 11.3%
viability, T/C [8]: 10.6%
viability, T/C [9]: 10.2%
viability, T/C [10]: 11.5%
viability, T/C [11]: 17%
viability, T/C [12]: 14.2%
viability, T/C [13]: 9.65%
viability, T/C [14]: 8.65%
viability, T/C [15]: 11.5%
viability, T/C [16]: 11%
viability, T/C [17]: 12.8%
viability, T/C [18]: 15.8%
viability, T/C [19]: 9.84%
viability, T/C [20]: 8.29%
viability, T/C [21]: 10.2%
viability, T/C [22]: 9.41%
viability, T/C [23]: 11.5%
viability, T/C [24]: 16.5%
viability, T/C [25]: 8.35%
viability, T/C [26]: 8.9%
viability, T/C [27]: 8.97%
viability, T/C [28]: 9.36%
viability, T/C [29]: 9.42%
viability, T/C [30]: 16.1%
viability, T/C [31]: 6.76%
viability, T/C [32]: 6.43%
viability, T/C [33]: 7.66%
viability, T/C [34]: 8.04%
viability, T/C [35]: 9.25%
viability, T/C [36]: 12.2%
